A short description of data set [1]: Intrinsic 1'-OH-MDZ formation clearance, human jejunal mucosa/microsomes. The format is in vitro ADME. The conditions noted are these: jejunal microsomes; eight human jejunal preparations, Vmax/Km; read-out: Microsomal intrinsic clearance (1'-OH-MDZ formation), jejunum.
Procedure: (§1) For comparison, an intrinsic 1'-OH-MDZ formation clearance was determined for eight paired human duodenal and jejunal mucosae. The mucosal mass was removed from ~1 foot sections of duodenum and jejunum and total homogenate and microsomes were prepared, as described above. […] Microsomes were incubated with varying concentrations of MDZ for determination of Km and Vmax parameters for 1'-hydroxylation.
(§2) The total amount of microsomal protein per gram of mucosa was determined from the following relationship: [formula] This calculation assumes that CYP3A4 found in mucosal homogenate resides exclusively within the microsomal fraction. The microsomal intrinsic formation clearance was calculated as the ratio of Vmax to Km. The intrinsic 1'-OH-MDZ formation clearance per gram of mucosa was calculated as the product of the microsomal intrinsic formation clearance and the computed amount of microsomal protein per gram of mucosa.
Data set [2] relates to human jejunal microsomes (CYP3A). The data set is described as above. The format is in vitro ADME. The conditions noted are these: eight human jejunal preparations, Vmax/Km; listed as MDZ.
Procedure: as §1, §2
The next data set deals with Caco-2 cells. The data set is described as follows: Apical/basolateral distribution of midazolam and metabolite across Caco-2 monolayers.
In another data set the target is CYP3A (Caco-2 cells) (Homo sapiens, UniProt P08684).
Another data set has as its system CYP3A. Particulars: K. E. Thummel et al.; cited from earlier work.
For data set [3] the following is noted: M. F. Paine et al.; cited from earlier work.
A short description of data set [4]: Intrinsic 1'-OH-MDZ formation clearance, human duodenal mucosa/microsomes. The format is in vitro ADME. Particulars: duodenal microsomes; eight human duodenal preparations, Vmax/Km; read-out: Microsomal intrinsic clearance (1'-OH-MDZ formation), duodenum.
Procedure: as §1, §2
Data set [5] has as its system human duodenal microsomes (CYP3A). The description is as above. The format is in vitro ADME. The conditions noted are these: eight human duodenal preparations, Vmax/Km; listed as MDZ.
Procedure: as §1, §2
[6] abbreviates: 1α,25-(OH)2 -D3 pretreated cells.

Some results are limits rather than exact numbers.

This is an account of results in US5856189A, “Cell culture model for drug bioavailability” (priority 1997, dated 1999).

CYP3A (Caco-2 cells), sequence (P08684 2-503): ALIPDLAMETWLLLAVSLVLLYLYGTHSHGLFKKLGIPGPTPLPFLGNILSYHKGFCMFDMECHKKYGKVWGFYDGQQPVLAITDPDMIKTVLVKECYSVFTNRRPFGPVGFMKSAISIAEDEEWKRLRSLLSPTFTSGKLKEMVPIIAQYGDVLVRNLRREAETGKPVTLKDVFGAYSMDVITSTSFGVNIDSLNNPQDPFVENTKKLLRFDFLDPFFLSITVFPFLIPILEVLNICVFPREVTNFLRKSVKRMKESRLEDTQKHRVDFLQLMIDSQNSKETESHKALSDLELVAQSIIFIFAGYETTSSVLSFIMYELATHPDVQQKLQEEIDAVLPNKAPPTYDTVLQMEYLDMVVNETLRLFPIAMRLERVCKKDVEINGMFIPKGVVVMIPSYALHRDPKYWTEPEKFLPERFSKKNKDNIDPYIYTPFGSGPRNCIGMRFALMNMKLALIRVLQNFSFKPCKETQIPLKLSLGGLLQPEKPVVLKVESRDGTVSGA
Procedure for CYP3A (Caco-2 cells): Standards were also prepared in duplicate. Known amounts of MDZ and 1'-OH-MDZ (1-50 ng) were combined with 100 mM potassium phosphate buffer, pH 7.4.
Unknowns and standards were extracted with 5 mL ethyl acetate and the upper organic layer transferred to clean tubes. The solvent was evaporated to dryness under a stream of nitrogen. The remaining solvent was reconstituted in 100 μL derivatizing reagent (10% N-methyl-N-(t-butyldimethylsilyl)trifluoroacetamide in acetonitrile).
At the end of this period, the medium was replaced with medium not containing vitamin D (except that contributed by the 5% FBS). Next, 4 μM MDZ was added to the apical (luminal) or basolateral (serosal) medium of the cells.
Parent drug and metabolite concentrations measured at 1 and 2 hours after MDZ administration were used for computation. The amount of 1'-OH-MDZ formed during this interval was determined as the sum of metabolite in the apical and basolateral compartments at 2 hours minus the total amount measured at 1 hour.
Because the incubation medium contained significant amounts of FBS, the fraction of MDZ bound to culture medium proteins was measured by equilibrium dialysis. […] The unbound concentration of MDZ in the apical and basolateral compartments during cell culture was calculated as the product of the experimentally determined MDZ-free fraction and total MDZ concentration. Since MDZ concentrations in the apical and basolateral compartments were not at equilibrium during the 1-2 hour MDZ incubation interval, the intracellular reaction was assumed to be driven by a MDZ concentration that was more closely aligned with the concentration in the basolateral compartment.
At the end of this period, the medium was replaced with medium containing neither serum nor vitamin D. Next, MDZ (4 μM) was added to the apical compartment.

Usually Km stands for the substrate concentration at which the rate is half of its maximum. For `Cc1ncc2n1-c1ccc(Cl)cc1C(c1ccccc1F)=NC2` [midazolam], the microsomal CLint in data set [1] was 118 ± 98.2 µL/min/mg. Also, in data set [2], the “Microsomal intrinsic clearance (1'-OH-MDZ formation), jejunum” value stood at 118.3 μl/min/mg protein. Besides, the “apical-to-basolateral concentration gradient of parent compound” value in the data set on Caco-2 cells (apical administration of 4 μM MDZ, 12-24 h) is recorded as “approximately 1.4 fold”. Further, the “distribution of parent compound after basolateral administration” value in the data set with Caco-2 cells (by 12 hours) is on record as “distributed preferentially to the apical medium”. Moreover, the “predicted unbound intracellular MDZ concentration in Caco-2 cells” value on CYP3A (Caco-2 cells) is listed as ~ 0.07 μM. Moreover, the “rate of 1'-OH-MDZ formation over time” value on CYP3A (Caco-2 cells) (0-24 h, FIG. 6A) was “remained roughly constant after 6 hours”. Further, the “time until 1'-OH-MDZ detectable after MDZ administration” value on CYP3A (Caco-2 cells) (4 μM MDZ to either compartment, cells treated with 0.25 μM 1α,25-(OH)2 -D3) is not above 1 h. The “1'-Hydroxymidazolam formation rate” value at CYP3A (Caco-2 cells) (1-2 h incubation interval, 4 μM MDZ apical) is given as 75.9 pmol/min/g cells. Moreover, at CYP3A (Caco-2 cells) (1-2 h interval), the “unbound midazolam concentration, apical” value is recorded as 280 nM and the “unbound midazolam concentration, basolateral” value was 66.3 nM. On CYP3A (Caco-2 cells) (1-2 h interval, non-saturating), the “intrinsic 1'-OH-MDZ formation clearance, Caco-2 cells” value stood at 1.14 ml/min/g cells. Further, at CYP3A (Caco-2 cells) (1-2 h interval, total), the “average midazolam concentration, apical” value came out at 2740 nM and the “average midazolam concentration, basolateral” value came to 650 nM. At CYP3A (Caco-2 cells) (setting [6]), the “intrinsic 1'-OH-MDZ formation clearance of Caco-2 cells as percent of duodenal mucosa” value came to 30% and the “intrinsic 1'-OH-MDZ formation clearance of Caco-2 cells as percent of jejunal mucosa” value amounted to 31%. Further, the Km in the data set with CYP3A is approximately 3.4 µM. Moreover, in data set [3], the “site of midazolam glucuronidation in vivo” value was “occurs primarily in the liver and not in the intestine in vivo”. Moreover, the microsomal CLint in data set [4] was 134 ± 109 µL/min/mg. In data set [5], the “Microsomal intrinsic clearance (1'-OH-MDZ formation), duodenum” value was found to be 133.8 μl/min/mg protein.
